Assay results: PubChem BioAssay AID2060908 (Molecular Pharmacology Branch, DTP, NCI, 2025)
Values belong to the molecule of their own block, whether it stands above or below them.

System: 186277-243-T-J2-PDC complex spheroids, viability
Experiment: Anticancer human tumor 186277-243-T-J2-PDC patient-derived colon adenocarcinoma cell line growth inhibition [RAS]
Settings: for viability, T/C: stronger effect = lower value
Method in brief: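 Agents were tested in combination matrices in half-log decrements from a top concentration at or near clinical Cmax (10 microM if undetermined). Targets were multi-cell spheroids of tumour lines plus HUVEC and MSC stromal cells.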

[1] = curve of first compound, second compound 0.000949 µM
[2] = curve of first compound, second compound 0.003 µM
[3] = curve of first compound, second compound 0.00949 µM
[4] = curve of first compound, second compound 0.03 µM
[5] = curve of first compound, second compound 0.0949 µM
[6] = curve of first compound, second compound 0.3 µM
[7] = second compound 0.000949 µM, first compound 0.0316 µM
[8] = second compound 0.000949 µM, first compound 0.1 µM
[9] = second compound 0.000949 µM, first compound 0.316 µM
[10] = second compound 0.000949 µM, first compound 1 µM
[11] = second compound 0.003 µM, first compound 0.0316 µM
[12] = second compound 0.003 µM, first compound 0.1 µM
[13] = second compound 0.003 µM, first compound 0.316 µM
[14] = second compound 0.003 µM, first compound 1 µM
[15] = second compound 0.00949 µM, first compound 0.0316 µM
[16] = second compound 0.00949 µM, first compound 0.1 µM
[17] = second compound 0.00949 µM, first compound 0.316 µM
[18] = second compound 0.00949 µM, first compound 1 µM
[19] = second compound 0.03 µM, first compound 0.0316 µM
[20] = second compound 0.03 µM, first compound 0.1 µM
[21] = second compound 0.03 µM, first compound 0.316 µM
[22] = second compound 0.03 µM, first compound 1 µM
[23] = second compound 0.0949 µM, first compound 0.0316 µM
[24] = second compound 0.0949 µM, first compound 0.1 µM
[25] = second compound 0.0949 µM, first compound 0.316 µM
[26] = second compound 0.0949 µM, first compound 1 µM
[27] = second compound 0.3 µM, first compound 0.0316 µM
[28] = second compound 0.3 µM, first compound 0.1 µM
[29] = second compound 0.3 µM, first compound 0.316 µM
[30] = second compound 0.3 µM, first compound 1 µM
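Also: spheroids exposed to compounds for 7 days before viability read.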

IC50 [1]: > 1000 nM | IC50 [2]: > 1000 nM | IC50 [3]: > 1000 nM | IC50 [4]: > 1000 nM | IC50 [5]: > 1000 nM | IC50 [6]: > 1000 nM
Structure (SMILES): CCN1CCN(Cc2ccc(Nc3ncc(F)c(-c4cc(F)c5nc(C)n(C(C)C)c5c4)n3)nc2)CC1 + CCn1c(-c2cccnc2C(C)OC)c2c3cc(ccc31)N1CCOC(CC(NC(=O)C(C(C)C)N(C)C(=O)C3(F)CCN(C(=O)C#CC(C)(C)N(C)C)CC3)C(=O)N3CCCC(N3)C(=O)OCC(C)(C)C2)C1
viability, T/C (second compound 0.000949 µM, first compound 0.00316 µM): 123% | viability, T/C (second compound 0.000949 µM, first compound 0.01 µM): 105% | viability, T/C [7]: 135% | viability, T/C [8]: 140% | viability, T/C [9]: 184% | viability, T/C [10]: 126% | viability, T/C (second compound 0.003 µM, first compound 0.00316 µM): 109% | viability, T/C (second compound 0.003 µM, first compound 0.01 µM): 95.8% | viability, T/C [11]: 135% | viability, T/C [12]: 160% | viability, T/C [13]: 168% | viability, T/C [14]: 128% | viability, T/C (second compound 0.00949 µM, first compound 0.00316 µM): 85.8% | viability, T/C (second compound 0.00949 µM, first compound 0.01 µM): 116% | viability, T/C [15]: 97.7% | viability, T/C [16]: 162% | viability, T/C [17]: 180% | viability, T/C [18]: 132% | viability, T/C (second compound 0.03 µM, first compound 0.00316 µM): 102% | viability, T/C (second compound 0.03 µM, first compound 0.01 µM): 136% | viability, T/C [19]: 135% | viability, T/C [20]: 155% | viability, T/C [21]: 171% | viability, T/C [22]: 110% | viability, T/C (second compound 0.0949 µM, first compound 0.00316 µM): 118% | viability, T/C (second compound 0.0949 µM, first compound 0.01 µM): 134% | viability, T/C [23]: 122% | viability, T/C [24]: 142% | viability, T/C [25]: 142% | viability, T/C [26]: 90.7% | viability, T/C (second compound 0.3 µM, first compound 0.00316 µM): 134% | viability, T/C (second compound 0.3 µM, first compound 0.01 µM): 113% | viability, T/C [27]: 123% | viability, T/C [28]: 116% | viability, T/C [29]: 104% | viability, T/C [30]: 58.6%

IC50 (curve of first compound, second compound 0.0316 µM): 672 nM | IC50 (curve of first compound, second compound 0.1 µM): 564 nM | IC50 (curve of first compound, second compound 0.316 µM): < 31.6 nM | IC50 (curve of first compound, second compound 1 µM): < 31.6 nM | IC50 (curve of first compound, second compound 3.16 µM): < 31.6 nM | IC50 (curve of first compound, second compound 10 µM): < 31.6 nM
Structure (SMILES): CCC(CC)c1cc(NC2CCC(N)C2)n2nccc2n1 (stereo not drawn) + C#Cc1c(F)ccc2cc(O)cc(-c3ncc4c(N5CC6CCC(C5)N6)nc(OCC56CCCN5CC(F)C6)nc4c3F)c12
viability, T/C (second compound 0.0316 µM, first compound 0.0316 µM): 79.8% | viability, T/C (second compound 0.0316 µM, first compound 0.1 µM): 77.9% | viability, T/C (second compound 0.0316 µM, first compound 0.316 µM): 79.6% | viability, T/C (second compound 0.0316 µM, first compound 1 µM): 34.8% | viability, T/C (second compound 0.0316 µM, first compound 3.16 µM): 3.07% | viability, T/C (second compound 0.0316 µM, first compound 10 µM): 0.17% | viability, T/C (second compound 0.1 µM, first compound 0.0316 µM): 56.6% | viability, T/C (second compound 0.1 µM, first compound 0.1 µM): 77.6% | viability, T/C (second compound 0.1 µM, first compound 0.316 µM): 69% | viability, T/C (second compound 0.1 µM, first compound 1 µM): 32.4% | viability, T/C (second compound 0.1 µM, first compound 3.16 µM): 2.77% | viability, T/C (second compound 0.1 µM, first compound 10 µM): 0.13% | viability, T/C (second compound 0.316 µM, first compound 0.0316 µM): 32.8% | viability, T/C (second compound 0.316 µM, first compound 0.1 µM): 40% | viability, T/C (second compound 0.316 µM, first compound 0.316 µM): 33.4% | viability, T/C (second compound 0.316 µM, first compound 1 µM): 17.3% | viability, T/C (second compound 0.316 µM, first compound 3.16 µM): 2.52% | viability, T/C (second compound 0.316 µM, first compound 10 µM): 0.1% | viability, T/C (second compound 1 µM, first compound 0.0316 µM): 16.6% | viability, T/C (second compound 1 µM, first compound 0.1 µM): 21.3% | viability, T/C (second compound 1 µM, first compound 0.316 µM): 19.9% | viability, T/C (second compound 1 µM, first compound 1 µM): 11.3% | viability, T/C (second compound 1 µM, first compound 3.16 µM): 2.86% | viability, T/C (second compound 1 µM, first compound 10 µM): 0.14% | viability, T/C (second compound 3.16 µM, first compound 0.0316 µM): 11.1% | viability, T/C (second compound 3.16 µM, first compound 0.1 µM): 14% | viability, T/C (second compound 3.16 µM, first compound 0.316 µM): 12.2% | viability, T/C (second compound 3.16 µM, first compound 1 µM): 10.1% | viability, T/C (second compound 3.16 µM, first compound 3.16 µM): 2.81% | viability, T/C (second compound 3.16 µM, first compound 10 µM): 0.16% | viability, T/C (second compound 10 µM, first compound 0.0316 µM): 9.8% | viability, T/C (second compound 10 µM, first compound 0.1 µM): 9.61% | viability, T/C (second compound 10 µM, first compound 0.316 µM): 8.97% | viability, T/C (second compound 10 µM, first compound 1 µM): 6.36% | viability, T/C (second compound 10 µM, first compound 3.16 µM): 2.12% | viability, T/C (second compound 10 µM, first compound 10 µM): 0.21%

IC50 (curve of compound): 2.59 µM [middle of 4 runs]
Structure (SMILES): CC(C)NCC(C(=O)N1CCN(c2ncnc3c2C(C)CC3O)CC1)c1ccc(Cl)cc1 (stereo not drawn)
viability, T/C (compound 0.0316 µM): 86% [middle of 4 runs] | viability, T/C (compound 0.1 µM): 89.2% [middle of 4 runs] | viability, T/C (compound 0.316 µM): 97.7% [middle of 4 runs] | viability, T/C (compound 1 µM): 68.8% [middle of 4 runs] | viability, T/C (compound 3.16 µM): 48% [middle of 4 runs] | viability, T/C (compound 10 µM): 32.2% [middle of 4 runs]

IC50 [1]: 1730 nM | IC50 [2]: 1780 nM | IC50 [3]: 1880 nM | IC50 [4]: 1890 nM | IC50 [5]: 1540 nM | IC50 [6]: 1210 nM
Structure (SMILES): CCC(CC)c1cc(NC2CCC(N)C2)n2nccc2n1 (stereo not drawn) + CCn1c(-c2cccnc2C(C)OC)c2c3cc(ccc31)N1CCOC(CC(NC(=O)C(C(C)C)N(C)C(=O)C3(F)CCN(C(=O)C#CC(C)(C)N(C)C)CC3)C(=O)N3CCCC(N3)C(=O)OCC(C)(C)C2)C1
viability, T/C [7]: 105% | viability, T/C [8]: 91.8% | viability, T/C [9]: 90.4% | viability, T/C [10]: 91.2% | viability, T/C (second compound 0.000949 µM, first compound 3.16 µM): 4.89% | viability, T/C (second compound 0.000949 µM, first compound 10 µM): 0.44% | viability, T/C [11]: 96% | viability, T/C [12]: 86.7% | viability, T/C [13]: 98% | viability, T/C [14]: 101% | viability, T/C (second compound 0.003 µM, first compound 3.16 µM): 4.58% | viability, T/C (second compound 0.003 µM, first compound 10 µM): 0.37% | viability, T/C [15]: 99.4% | viability, T/C [16]: 87.2% | viability, T/C [17]: 91.9% | viability, T/C [18]: 103% | viability, T/C (second compound 0.00949 µM, first compound 3.16 µM): 12.8% | viability, T/C (second compound 0.00949 µM, first compound 10 µM): 0.38% | viability, T/C [19]: 107% | viability, T/C [20]: 107% | viability, T/C [21]: 97.7% | viability, T/C [22]: 113% | viability, T/C (second compound 0.03 µM, first compound 3.16 µM): 4.88% | viability, T/C (second compound 0.03 µM, first compound 10 µM): 0.35% | viability, T/C [23]: 111% | viability, T/C [24]: 103% | viability, T/C [25]: 108% | viability, T/C [26]: 77.6% | viability, T/C (second compound 0.0949 µM, first compound 3.16 µM): 4.31% | viability, T/C (second compound 0.0949 µM, first compound 10 µM): 0.37% | viability, T/C [27]: 102% | viability, T/C [28]: 108% | viability, T/C [29]: 98.2% | viability, T/C [30]: 59.5% | viability, T/C (second compound 0.3 µM, first compound 3.16 µM): 3.42% | viability, T/C (second compound 0.3 µM, first compound 10 µM): 0.42%
